In the supplement of paper PMC10307832:

Key:
Assay in all cases: relative viability (nuclei count vs DMSO), 5 days (fraction); higher = more cells survive
[1] = compound: C1/C(=C\C2=CC=CS2)/C(=O)/C(=C/C3=CC=CS3)/C1 + CS(=O)(=O)N1CCN(Cc2cc3nc(-c4cccc5[nH]ncc45)nc(N4CCOCC4)c3s2)CC1 [Pictilisib] (partner 1 µM)
Summary of the method: (§1)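 Medians of duplicate plates are given as relative viability. That measure is the nuclei count in treated wells divided by the count in vehicle wells. Counts were taken on 4× images of lung cancer cell lines in 1536-well plates, 5 days after pin-tool dosing the day after seeding with one drug alone or a fixed anchor-drug dose plus five library-drug doses (not always all listed) in √10 steps.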

[2] = compound: C1/C(=C\C2=CC=CS2)/C(=O)/C(=C/C3=CC=CS3)/C1 + Nc1ncn([C@H]2C[C@H](O)[C@@H](CO)O2)c(=O)n1 [Decitabine] (partner 2 µM)
Summary of the method: as §1

[3] = compound: C1=CC(=CC=C1C2=CC(=C(S2)NC(=O)N)C(=O)N)F [TPCA-1] + CS(=O)(=O)N1CCN(Cc2cc3nc(-c4cccc5[nH]ncc45)nc(N4CCOCC4)c3s2)CC1 [Pictilisib] (partner 1 µM)
Summary of the method: as §1

[4] = compound: C[C@]12O[C@H](C[C@]1(O)CO)n1c3ccccc3c3c4c(c5c6ccccc6n2c5c31)CNC4=O [Lestaurtinib] + CS(=O)(=O)N1CCN(Cc2cc3nc(-c4cccc5[nH]ncc45)nc(N4CCOCC4)c3s2)CC1 [Pictilisib] (partner 1 µM)
Summary of the method: as §1

Cell Line | relative viability ([1]; first compound 0.2 µM) | relative viability ([1]; first compound 0.6325 µM) | relative viability ([1]; first compound 2 µM) | relative viability ([1]; first compound 6.325 µM) | relative viability ([1]; first compound 20 µM) | relative viability ([2]; first compound 0.2 µM) | relative viability ([2]; first compound 0.6325 µM) | relative viability ([2]; first compound 2 µM) | relative viability ([2]; first compound 6.325 µM) | relative viability ([2]; first compound 20 µM) | relative viability ([3]; first compound 0.04 µM) | relative viability ([3]; first compound 0.1265 µM) | relative viability ([3]; first compound 0.4 µM) | relative viability ([3]; first compound 1.265 µM) | relative viability ([3]; first compound 4 µM) | relative viability ([4]; first compound 0.005 µM) | relative viability ([4]; first compound 0.01581 µM) | relative viability ([4]; first compound 0.05 µM) | relative viability ([4]; first compound 0.1581 µM) | relative viability ([4]; first compound 0.5 µM)
SK-LU-1 | 0.583 | 0.709 | 0.649 | 0.56 | 0.665 | 0.6 | 0.627 | 0.749 | 0.478 | 0.665 | 0.797 | 0.465 | 0.44 | 0.436 | 0.317 | 0.464 | 0.464 | 0.297 | 0.436 | 0.246
NCI-H1975 | 0.314 | 0.265 | 0.328 | 0.26 | 0.265 | 0.404 | 0.356 | 0.324 | 0.365 | 0.385 | 0.278 | 0.259 | 0.264 | 0.233 | 0.16 | 0.275 | 0.252 | 0.205 | 0.217 | 0.171
RERF-LC-KJ | 0.566 | 0.583 | 0.583 | 0.42 | 0.494 | 0.816 | 0.767 | 0.728 | 0.619 | 0.463 | 0.533 | 0.493 | 0.561 | 0.44 | 0.466 | 0.593 | 0.235 | 0.458 | 0.387 | 0.243
A549 | 0.486 | 0.511 | 0.447 | – | 0.456 | 0.281 | 0.295 | 0.237 | 0.384 | 0.229 | 0.676 | 0.517 | – | 0.378 | 0.242 | 0.61 | 0.588 | 0.184 | 0.251 | 0.0856
NCI-H441 | 0.523 | 0.418 | 0.541 | 0.489 | 0.523 | 0.265 | 0.267 | 0.247 | 0.234 | 0.414 | 0.565 | 0.377 | 0.4 | 0.216 | 0.195 | 0.346 | 0.342 | 0.215 | 0.299 | 0.171
LCLC-103H | 0.573 | 0.57 | 0.757 | 0.483 | 0.551 | 0.803 | 0.747 | 0.77 | 0.554 | 0.742 | 0.659 | 0.593 | 0.553 | 0.587 | 0.656 | 0.61 | 0.623 | 0.521 | 0.443 | 0.481
HCC-78 | 0.197 | 0.216 | 0.288 | 0.216 | 0.209 | 0.653 | 0.763 | 0.755 | 0.714 | 0.686 | 0.242 | 0.194 | 0.21 | 0.203 | 0.103 | 0.19 | 0.225 | 0.203 | 0.136 | 0.169
NCI-H1915 | 0.953 | 0.896 | 0.981 | 0.839 | 0.788 | 0.261 | 0.279 | 0.246 | 0.232 | 0.268 | 1.27 | 0.906 | 1.05 | 0.876 | 0.477 | 0.945 | 0.966 | 0.654 | 0.418 | 0.282
